Read-outs that look alike come from different tables or passages of the source.
What was measured:
BVDV = BVDV plaque inhibition assay; assay type: cell-based, bovine diarrhoea virus (BVDV); conditions: for IC50: Bovine viral diarrhea virus isolates and strains, in Bos taurus; for % untreated control: Example 5
Experimental: BVDV Plaque Assay: In the absence of a suitable cell culture system able to support replication of human HCV, bovine diarrhoea virus (BVDV) is an accepted cell culture model. HCV and BVDV share a significant degree of local protein homology, a common replication strategy and probably the same subcellular location for viral envelopment.
(§1) The materials and procedures were as described in Whitby et al. (2004) Antiviral Chemistry and Chemotherapy 15: 141-151. In brief, MDBK cells were seeded in 96 well plates and allowed to reach confluency. Monolayers were exposed to between 14 and 45 plaque forming units of BVDV and adsorption allowed to take place. Infected monolayers were then exposed to the test compound, medium added containing low gelling-point agarose and allowed to set. The plates were then incubated for 4 days post infection, fixed in 5% formalin and stained with 0.5% neutral red after removal of the agarose layer. Anti-viral activity was measured by determination of plaque inhibition and expressed as IC50 values. Castanospermine, a known viral inhibitor, was used as a positive control.
For these assays a confluent monolayer of MDBK cells is produced in a flat bottomed well of a tissue culture plate. The monolayer is infected with BVDV. Sufficient virus is added to eventually form approximately 20-30 plaques. After allowing approximately 1 hr for the virus to infect, the cells are washed and liquid agar is added and allowed to set as a thin layer over the cell surface (the ‘overlay’). The infected cells are then left for a period of days to allow the virus to replicate and cells to shed virus, detach or lyse. Cells in the immediate vicinity of the initial virus infection are therefore infected—localized by the agar layer.
The test compound is added at appropriate dilutions with the virus. An antiviral effect of the compound is scored by the reduction of plaque number or size. The concentration of compound required to produce a 50% (IC50) reduction of plaque number or size is noted. Controls of no compound added are included. A control of a known antiviral compound (castanospermine) is carried out to calibrate the antiviral activity.
Plaque Assay: The materials and procedures were as described in Whitby et al. (2004) Antiviral Chemistry and Chemotherapy 15: 141-151.
as §1, with “In” for “The materials and procedures were as described in Whitby et al. (2004) Antiviral Chemistry and Chemotherapy 15: 141-151. In”, “Castanospermine (Compound 104),” for “Castanospermine,”

α-D-glucosidase [1] = molecular target: T1, α-D-glucosidase (Saccharomyces cerevisiae, UniProt P53341); assay: Glycosidase inhibition: α-D-glucosidase (yeast); assay type: biochemical, Saccharomyces cerevisiae (Baker's yeast); conditions: 1 mg/ml; pH 6.0, 20° C; read-out: % inhibition α-gluc (yeast)
T1 construct: purchased Sigma
Experimental: (§2) Inhibition of the N-linked glycan trimming enzymes alpha-Glucosidases I and II or alpha-Mannosidases I and II are thought to be related to the anti-viral activity of castanospermine (Compound 104) and 1-deoxynojirimycin (Compound 193). […] All enzymes were purchased from Sigma, as were the appropriate p-nitrophenyl substrates. Assays were carried out in microtitre plates. Enzymes were assayed in 0.1M citric acid/0.2M di-sodium hydrogen phosphate (McIlvaine) buffers at the optimum pH for the enzyme. All assays were carried out at 20° C. For screening assays the incubation assay consisted of 10 μl of enzyme solution, 10 μl of inhibitor solution (made up in water at 5 mM) and 50 μl of the appropriate 5 mM p-nitrophenyl substrate (3.57 mM final conc.) made up in McIlvaine buffer at the optimum pH for the enzyme.
(§3) The reactions were stopped with 0.4M glycine (pH 10.4) during the exponential phase of the reaction, which was determined at the beginning of the assay using blanks with water, which were incubated for a range of time periods to measure the reaction rate using 5 mM substrate solution. Endpoint absorbances were read at 405 nm with a Bio-rad microtitre plate reader (Benchmark). Water was substituted for the inhibitors in the blanks.

α-D-glucosidase [2] = molecular target: T2, α-D-glucosidase (Oryza sativa subsp. japonica, UniProt Q653V7); assay: Glycosidase inhibition: α-D-glucosidase (rice); assay type: biochemical, rice (Oryza sativa); conditions: 1 mg/ml; pH 6.0, 20° C; read-out: % inhibition α-gluc (rice)
T2 construct: purchased Sigma
Experimental: as §2, §3

β-D-glucosidase = assay: Glycosidase inhibition: β-D-glucosidase; assay type: biochemical, Almonds (Prunus sp.); conditions: 1 mg/ml; pH 5.0, 20° C
Experimental: as §2, §3

α-D-galactosidase = molecular target: T3, α-D-galactosidase (Coffea arabica, UniProt Q42656); assay: Glycosidase inhibition: α-D-galactosidase; assay type: biochemical, Green coffee beans (Coffea sp.); conditions: 1 mg/ml; pH 6.5, 20° C
T3 construct: purchased Sigma
Experimental: as §2, §3

HCV = assay: Cell-based HCV infection NS3 protease FRET assay in DMSO-Huh7 cells; set-up: species or system hepatitis C virus (HCV); conditions: DMSO-Huh7 cells infected with HCV at 0.05 ffu/cell; HCV NS3 protein levels by FRET, day 6 p.i.
[3] = MDBK, 96 h, read-out: IC50 (μg/ml)
[4] = Examples 1-3, 50% reduction of plaque number or size, MDBK cells, read-out: IC50 (μg/ml)

T3 sequence (Q42656 16-378): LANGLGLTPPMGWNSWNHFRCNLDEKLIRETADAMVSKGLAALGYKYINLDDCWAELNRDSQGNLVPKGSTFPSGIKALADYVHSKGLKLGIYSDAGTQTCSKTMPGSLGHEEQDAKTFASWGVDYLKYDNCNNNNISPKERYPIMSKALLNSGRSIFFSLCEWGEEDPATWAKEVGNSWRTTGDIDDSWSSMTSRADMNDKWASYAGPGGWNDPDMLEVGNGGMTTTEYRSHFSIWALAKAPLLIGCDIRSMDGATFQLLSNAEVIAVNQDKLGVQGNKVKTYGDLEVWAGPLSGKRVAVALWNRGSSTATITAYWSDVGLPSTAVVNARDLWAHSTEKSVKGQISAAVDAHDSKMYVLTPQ
T2 sequence (Q653V7 34-885): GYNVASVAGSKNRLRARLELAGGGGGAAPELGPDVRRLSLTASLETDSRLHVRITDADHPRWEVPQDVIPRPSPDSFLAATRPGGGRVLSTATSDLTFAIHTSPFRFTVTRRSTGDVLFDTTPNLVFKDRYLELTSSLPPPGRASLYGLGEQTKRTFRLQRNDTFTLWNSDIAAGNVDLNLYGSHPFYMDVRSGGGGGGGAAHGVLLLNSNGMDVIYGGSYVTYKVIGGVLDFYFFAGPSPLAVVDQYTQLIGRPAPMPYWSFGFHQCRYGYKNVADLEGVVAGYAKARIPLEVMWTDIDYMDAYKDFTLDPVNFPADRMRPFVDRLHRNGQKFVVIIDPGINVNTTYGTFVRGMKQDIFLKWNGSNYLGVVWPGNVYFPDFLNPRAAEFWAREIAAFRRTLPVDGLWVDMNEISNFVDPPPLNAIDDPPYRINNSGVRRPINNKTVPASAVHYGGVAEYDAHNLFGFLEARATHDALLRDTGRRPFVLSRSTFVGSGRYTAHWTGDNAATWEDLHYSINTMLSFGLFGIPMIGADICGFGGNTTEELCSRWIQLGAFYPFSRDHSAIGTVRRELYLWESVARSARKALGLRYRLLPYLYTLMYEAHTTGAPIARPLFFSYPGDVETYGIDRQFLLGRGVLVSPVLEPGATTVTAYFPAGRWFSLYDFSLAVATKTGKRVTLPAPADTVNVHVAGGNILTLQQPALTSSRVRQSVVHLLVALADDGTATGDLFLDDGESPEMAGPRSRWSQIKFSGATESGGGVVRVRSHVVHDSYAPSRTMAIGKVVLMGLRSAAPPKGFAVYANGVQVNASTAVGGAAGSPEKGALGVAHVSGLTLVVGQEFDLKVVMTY
T1 sequence (P53341 whole entry): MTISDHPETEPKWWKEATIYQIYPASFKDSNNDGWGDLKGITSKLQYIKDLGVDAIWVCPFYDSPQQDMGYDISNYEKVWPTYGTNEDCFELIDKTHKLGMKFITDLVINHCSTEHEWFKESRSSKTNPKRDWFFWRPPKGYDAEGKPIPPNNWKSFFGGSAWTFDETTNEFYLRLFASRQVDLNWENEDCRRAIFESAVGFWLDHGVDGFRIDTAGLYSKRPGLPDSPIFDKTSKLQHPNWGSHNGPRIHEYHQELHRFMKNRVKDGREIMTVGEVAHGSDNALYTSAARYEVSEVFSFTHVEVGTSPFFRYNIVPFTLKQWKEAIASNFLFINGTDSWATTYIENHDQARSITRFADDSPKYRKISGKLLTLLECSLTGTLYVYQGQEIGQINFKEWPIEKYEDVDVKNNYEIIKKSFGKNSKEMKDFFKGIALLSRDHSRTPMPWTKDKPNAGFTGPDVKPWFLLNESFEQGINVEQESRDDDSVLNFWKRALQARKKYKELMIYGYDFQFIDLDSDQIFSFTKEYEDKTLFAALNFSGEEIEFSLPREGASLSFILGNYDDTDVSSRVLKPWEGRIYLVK

CC[C@@H]1N[C@@H](CO)[C@H](O)[C@@H](O)[C@@H]1O [Compound 23, (2S,3R,4S,5S,6S)-2-ethyl-6-(hydroxymethyl)piperidine-3,4,5-triol]
IC50 (BVDV; MDBK, 96 h, read-out: IC50): 420 µM
IC50 (BVDV; [3]): 80 µg/mL
% untreated control (BVDV; dose 32 μg/ml (0.17 mM)): 83%
% untreated control (BVDV; dose 63 μg/ml (0.33 mM)): 56%
% untreated control (BVDV; dose 125 μg/ml (0.65 mM)): 47%
% untreated control (BVDV; dose 250 μg/ml (1.30 mM)): 35%
% untreated control (BVDV; dose 500 μg/ml (2.60 mM)): 22%
inhibition at 1000 µg/mL (α-D-glucosidase [1]): 0%
inhibition at 1000 µg/mL (α-D-glucosidase [2]): 66%
% inhibition β-glucosidase (β-D-glucosidase): 28%
inhibition at 1000 µg/mL (α-D-galactosidase): 0%
Ave % inhibition (HCV): + (+: ≦19%)

CC[C@@H](O)[C@H]1N[C@H](CO)[C@@H](O)[C@@H]1O [Compound 62, (2R,3R,4R,5R)-2-(hydroxymethyl)-5-((R)-1-hydroxypropyl)pyrrolidine-3,4-diol]
IC50 (BVDV; [4]): 16.7 µg/mL
inhibition at 1000 µg/mL (α-D-glucosidase [1]): 0%
inhibition at 1000 µg/mL (α-D-glucosidase [2]): 32%
% inhibition β-glucosidase (β-D-glucosidase): 100%
inhibition at 1000 µg/mL (α-D-galactosidase): 0%
Ave % inhibition (HCV): + (+: ≦19%)

CC(O)[C@H](O)[C@H]1N[C@H](CO)[C@@H](O)[C@@H]1O (stereo partly drawn) [Compound 63, (2R,3R,4R,5R)-2-((1R)-1,2-dihydroxypropyl)-5-(hydroxymethyl)pyrrolidine-3,4-diol]
IC50 (BVDV; [4]): 87.2 µg/mL
inhibition at 1000 µg/mL (α-D-glucosidase [1]): 0%
inhibition at 1000 µg/mL (α-D-glucosidase [2]): 41%
% inhibition β-glucosidase (β-D-glucosidase): 93%
inhibition at 1000 µg/mL (α-D-galactosidase): 0%
Ave % inhibition (HCV): + (+: ≦19%)

O[C@H]1[C@H](O)[C@@H](O)CN2CC[C@H](O)[C@H]12 [Compound 104, Castanospermine, reference compound]
IC50 (BVDV; MDBK, 96 h, read-out: IC50): 120 µM
IC50 (BVDV; [3]): 22.5 µg/mL
IC50 (BVDV; [4]): 15.6 µg/mL
% untreated control (BVDV; dose 6.0 μg/ml (0.03 mM)): 98%
% untreated control (BVDV; dose 12.5 μg/ml (0.07 mM)): 67%
% untreated control (BVDV; dose 25.0 μg/ml (0.13 mM)): 46%
% untreated control (BVDV; dose 50.0 μg/ml (0.26 mM)): 12%
% untreated control (BVDV; dose 100.0 μg/ml (0.53 mM)): 1.1%
inhibition at 1000 µg/mL (α-D-glucosidase [1]): 0%
inhibition at 1000 µg/mL (α-D-glucosidase [2]): 90%
% inhibition β-glucosidase (β-D-glucosidase): 88%
inhibition at 1000 µg/mL (α-D-galactosidase): 0%

OC[C@@H]1NC[C@H](O)[C@@H]1O [Compound 167, (2S,3R,4S)-2-(hydroxymethyl)pyrrolidine-3,4-diol]
IC50 (BVDV; [4]): 57.6 µg/mL
inhibition at 1000 µg/mL (α-D-glucosidase [1]): 0%
inhibition at 1000 µg/mL (α-D-glucosidase [2]): 58%
% inhibition β-glucosidase (β-D-glucosidase): 22%
inhibition at 1000 µg/mL (α-D-galactosidase): 32%

Reference: patent US20110195929A1, “COMPOUNDS FOR THE TREATMENT OF FLAVIVIRAL INFECTIONS” (SUMMIT CORPORATION PLC, priority 2008, published 2011)
